Experimental data published in patent publication US20050011468A1, “Use of methylnaltrexone in treating gastrointestinal dysfunction in equines” (priority 2002, published 2005).

Assays:
[1] = cited from earlier work
[2] = tested on: bowel peristalsis / gastric emptying; assay: postoperative colic (ileus) in a burn patient treated with methylnaltrexone infusion; type: in vivo, human; settings: following administration of the drug (unpublished data)
From the text: Recent human data support the role of endogenous opioids, including endorphins, in the pathogenesis of postoperative ileus in humans. See Taguchi A., et al., “Selective postoperative inhibition of gastrointestinal opioid receptors,” New Engl. J. Med. 345:935-40, 2001. No reference is made to either equine colic or the etiology of perioperative management of equines or other animals. […] Prior to administration, there had been no evidence of bowel peristalsis and no passage of flatus. See Moss J., et al., “Selective postoperative inhibition of gastrointestinal opioid receptors,” (correspondence) New Engl. J. Med. 346(6):455 (2002).

[3] = tested on: bowel peristalsis / gastric emptying; settings: one burn patient with postoperative colic; infusion 0.3 mg/kg over 15 minutes; during drug administration; cited from earlier work
[4] = in vivo; cited from earlier work
[5] = tested on: morphine-induced rage; settings: in an animal; cited from earlier work
[6] = tested on: gut motility; settings: β-endorphin homologues from six species; read-out: IC50 on the standard model of gut motility; cited from earlier work

| Compound | absorption after oral administration ([1]; from the stomach and bowel) | time to initial plasma levels ([1]; oral administration, non-enteric coated compound) [min] | gastric residuals [2] | bowel sounds and flatus [3] | crossing of the blood-brain-barrier [4] | severity of morphine-induced rage [5] | IC50 [6] [nM] |
| --- | --- | --- | --- | --- | --- | --- | --- |
| C[N@+]1(CC2CC2)CC[C@]23c4c5ccc(O)c4O[C@H]2C(=O)CC[C@@]3(O)[C@H]1C5 [methylnaltrexone] | rapidly absorbed | 5 to 10 | markedly reduced | prompt restoration of bowel sounds and flatus | does not cross the blood-brain-barrier | minimize the severity |  |
| human endorphin: human homologue of β-endorphin, IC50 printed as 'that of humans' |  |  |  |  |  |  | 12.2 |
